Measurements published in patent publication US4690925A, “(2-Oxo-1,2,3,5-tetrahydroimidazo-[2,1-B]quinazolinyl) oxyalkylamides properties having phosphodiosterase inhibiting” (Syntex (U.S.A.) Inc., priority 1985, dated 1987).

Legend:
[1] = tested on: Soluble dog heart PDE; assay: Cyclic AMP phosphodiesterase inhibition, soluble dog heart PDE (Table I); format: biochemical; details: soluble dog heart PDE (footnote a)
Experimental: (§1) The inhibition of cyclic AMP phosphodiesterase activity by the subject compounds was assayed by the method of Filburn and Karn, Analyt. Biochem., 52: 505-516 (1973), using 1 μM cyclic AMP as the substrate. Human platelet cyclic AMP phosphodiesterase was obtained from human donors. Platelets were isolated and washed by centrifugation, the membranes ruptured by a sequential freeze-thaw procedure and hypotonic lysis and the soluble enzyme isolated by high speed centrifugation. The enzyme was stored in aliquots at -20° C.
(§2) This table contains the IC50 values for human platelet phosphodiesterase and IC25 values for rat heart phosphodiesterase.
^a Soluble dog heart PDE

[2] = biological target: T1, Human platelet cyclic AMP phosphodiesterase (Homo sapiens, UniProt Q14432); assay: Cyclic AMP phosphodiesterase assay, human platelet enzyme (Table I); format: biochemical; details: for IC50: 1 μM cyclic AMP as substrate, soluble enzyme from human platelets, read-out: Human Platelet IC50 (inhibition of cyclic AMP phosphodiesterase); for Relative Potency: relative to theophylline, which is assigned a value of 1 on human platelet phosphodiesterase
T1 construct: from tissue; host or cells: human platelets from donors, soluble fraction after freeze-thaw and hypotonic lysis
Experimental: as §1, §2

[3] = tested on: Mongrel dogs; assay: Inotropic activity in anesthetized mongrel dogs (Table II); format: in vivo, dog; details: 1 mg/kg i.v., suspended in carboxymethylcellulose, vagotomized dogs
Experimental: Mongrel dogs were anesthetized intravenously with 35 mg/kg sodium pentobarbital and supplemented as needed. Blood pressure was measured with a Statham pressure transducer via a cannula inserted from a femoral artery into the abdominal aorta. Heart rate was recorded by a cardiotachometer from a lead II electrocardiogram. Right ventricular contractile force was recorded from a Walton-Brodie strain gauge sutured to the right ventricle following a midsternal thoracotomy. A Harvard respirator was used to ventilate the dogs with room air through an endotracheal tube. Each dog was bilaterally vagotomized. Following a midline laparotomy, a cannula was sutured into the duodenum for intraduodenal administration of test compound. A femoral vein was cannulated for administration of isoproterenol. All data were recorded on a Beckman R611 Dynograph.
To assess the responsiveness of each dog, isoproterenol was given intravenously at half-log interval doses from 0.007 to 6.67 μg/kg. The test compound was then administered intravenously at 1 mg/kg.

[4] = tested on: Soluble rat heart PDE; assay: Cyclic AMP phosphodiesterase inhibition, soluble rat heart PDE (Table I); format: biochemical; details: soluble rat heart PDE (footnote b)
Experimental: as §1, §2
^b Soluble rat heart PDE

[5] = tested on: Lewis Lung Carcinoma; assay: Antimetastatic activity against Lewis Lung Carcinoma (spontaneous metastases) (Table III); format: in vivo, mice (female, C57B1/6); details: 5 mg/kg oral, every other day, 20 to 21 days
Experimental: Mice (female, C57B1/6, 16-18 g) were inoculated subcutaneously between the inguinal and axillary areas with 0.2 ml of a freshly prepared tumor brei. Control mice were treated with vehicle. Other mice were treated orally with test compound in suspension in 0.5% carboxymethylcellulose (CMC). Treatments were initiated one day after tumor implanation, and continued every other day throughout the experiment. 20 to 21 days after implantation of the tumor, mice were sacrificed, the primary tumor was weighed, and the number of lung metastases was determined by counting under a dissecting microscope.

T1 sequence (Q14432 whole entry): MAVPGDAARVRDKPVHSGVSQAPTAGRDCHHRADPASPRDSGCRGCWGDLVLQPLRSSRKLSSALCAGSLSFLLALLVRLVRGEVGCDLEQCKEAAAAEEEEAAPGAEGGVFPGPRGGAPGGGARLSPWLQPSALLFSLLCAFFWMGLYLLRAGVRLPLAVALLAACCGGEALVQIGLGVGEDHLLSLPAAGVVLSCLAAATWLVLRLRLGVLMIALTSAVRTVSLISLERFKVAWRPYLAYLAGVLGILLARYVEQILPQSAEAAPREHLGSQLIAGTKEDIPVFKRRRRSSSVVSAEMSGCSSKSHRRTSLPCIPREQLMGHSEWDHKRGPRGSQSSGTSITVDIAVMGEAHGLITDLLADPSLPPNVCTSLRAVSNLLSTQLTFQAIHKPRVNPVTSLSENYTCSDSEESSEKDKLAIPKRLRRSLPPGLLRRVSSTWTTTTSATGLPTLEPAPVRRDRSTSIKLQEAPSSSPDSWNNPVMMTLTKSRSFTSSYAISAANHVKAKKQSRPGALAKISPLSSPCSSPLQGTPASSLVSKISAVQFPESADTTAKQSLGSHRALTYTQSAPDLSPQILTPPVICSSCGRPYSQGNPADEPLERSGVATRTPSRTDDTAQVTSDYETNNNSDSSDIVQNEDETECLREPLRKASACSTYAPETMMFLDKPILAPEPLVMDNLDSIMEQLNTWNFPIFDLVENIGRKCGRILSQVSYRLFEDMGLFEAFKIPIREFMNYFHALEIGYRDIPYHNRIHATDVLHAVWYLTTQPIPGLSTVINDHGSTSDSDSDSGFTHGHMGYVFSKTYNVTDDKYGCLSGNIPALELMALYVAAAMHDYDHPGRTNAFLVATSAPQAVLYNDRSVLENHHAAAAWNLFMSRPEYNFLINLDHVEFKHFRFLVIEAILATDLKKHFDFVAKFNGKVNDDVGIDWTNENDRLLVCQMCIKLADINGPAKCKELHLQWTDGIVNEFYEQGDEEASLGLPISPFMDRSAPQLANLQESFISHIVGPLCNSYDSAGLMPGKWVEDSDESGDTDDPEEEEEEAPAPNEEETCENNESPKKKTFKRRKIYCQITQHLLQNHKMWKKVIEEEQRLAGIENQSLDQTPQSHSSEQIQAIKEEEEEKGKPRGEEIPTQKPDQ

| Structure (SMILES) | Heart IC25 (inhibition of cyclic AMP phosphodiesterase), soluble dog heart PDE [1] [µM] | IC50 [2] [µM] | Relative Potency [2] | Blood Pressure, peak effect [3] | Heart Rate, peak effect [3] | Rt. Ventricular Contractile Force, peak effect [3] | Heart IC25 (inhibition of cyclic AMP phosphodiesterase), soluble rat heart PDE [4] [µM] | Number of Pulmonary Metastases, Range ([5]; control range 0-29) | Number of Pulmonary Metastases, Median ([5]; p < 0.05, control median 5) |
| --- | --- | --- | --- | --- | --- | --- | --- | --- | --- |
| COC(=O)CN(C(=O)CCCOc1ccc2c(c1)CN1CC(=O)NC1=N2)C1CCCCC1 [Methyl 2-(N-cyclohexyl-4-(2-oxo-1,2,3,5-tetrahydroimidazo[2,1-b]quinazolin-7-yl)oxybutyramidyl)acetate] | 0.01 | 0.002 | 135,000 |  |  |  |  |  |  |
| NC(=O)CN(C(=O)CCCOc1ccc2c(c1)CN1CC(=O)NC1=N2)C1CCCCC1 [2-(N-cyclohexyl-4-(2-oxo-1,2,3,5-tetrahydroimidazo[2,1-b]quinazolin-7-yl)oxybutyramidyl)acetamide] | 0.1 | 0.011 | 24,500 |  |  |  |  |  |  |
| O=C(O)CN(C(=O)CCCOc1ccc2c(c1)CN1CC(=O)NC1=N2)C1CCCCC1 [2-(N-cyclohexyl-4-(2-oxo-1,2,3,5-tetrahydroimidazo[2,1-b]quinazolin-7-yl)oxybutyramidyl)acetic acid] |  | 0.005 | 54,000 | 32 % of Max. Isoproterenol | 30 % of Max. Isoproterenol | 33 % of Max. Isoproterenol | 0.1 | 0-11 | 0 |
